In patent US20230159445A1, “STAT INHIBITORY COMPOUNDS AND COMPOSITIONS” (JANPIX LIMITED, priority 2020, published 2023):

Each compound was assayed on glutathione (GSH) (assay: Reactivity Profiling with Glutathione (GSH), half-life by HPLC). Details: 5 mM glutathione (GSH) in IMDM with 10% FBS.
Description: 3.5 μL of 5 mM stocking solution of the inhibitors in DMSO was added to 697.5 μL of Iscove's Modified Dulbecco's Medium (IMDM) supplemented with 10% FBS and antibiotic antimycotic solution, with 5 mM glutathione to afford a final concentration of 25 μM inhibitor with 0.5% DMSO. The solution was then immediately placed in the sample tray at 25° C. […] For each inhibitor, its peak is integrated at different time points and compared to the time zero injection in order to obtain a percentage remaining. Half-life is calculated according to a first order reaction kinetic taking into account those time points for which remaining percentage of inhibitor is above 40%, using the formula: t½=Ln(2)/k, where k is the slope of the linear plot of Ln[Inhibitor] vs time, according to the formula: Ln[A]=Ln[A]0−kt, where [A] is the value resulting from the integration at each time point, [A]0 the value at time zero, and t the time. For each inhibitor, both replicates are averaged and the resulting t½ reported.

half-life at 25 μM | SMILES
0.00167 to 2.37 h | O=C(O)c1ccc(N(Cc2cccc(N3CCCC3)c2)C(=O)CN(Cc2cnccc2C(F)(F)F)S(=O)(=O)c2c(F)c(F)c(F)c(F)c2F)c(OC2CC2)c1 [Compound 1159, 3-cyclopropoxy-4-(2-(N-((4-(trifluoromethyl)pyridin-3-yl)methyl)-(2,3,4,5,6-pentafluoro-phenyl)sulfonamido)-N-(3-(pyrrolidin-1-yl)benzyl)acetamido) benzoic acid]

What follows are compounds tested on MV4-11 cells (assay: MV4-11 Cell Cytotoxicity Assay (CellTiter-Blue, 72 h)). Details: Homo sapiens, MV4-11; MV-4-11 cells.
Type: cell-based, human
Description: In some embodiments, the potency of the STAT5 inhibitors are evaluated by an in vitro assay such as MV4-11 Cell Cytotoxicity Assay. […] 10,000 cells were plated per well in 96-well flat-bottom sterile culture plates with low-evaporation lids. After 24 h, inhibitors and a vehicle control (0.5% DMSO) were added and the cells were incubated for 72 h at 37° C. in 5% CO2. Inhibitors were examined in triplicate at a maximal concentration of 50 μM, followed by 1:2 dilutions in subsequent wells (25, 12.5, 6.25, 3.125, 1.5625, 0.78125, 0.390625, 0.195313 and 0.097656 μM). After 72 h, the wells were treated with CellTiter-Blue® (20 μL/well), and the plates were incubated using standard cell culture conditions for 1 hour. Fluorescence was measured at 560/590 nm.

SMILES | IC50
COc1cc(C(=O)O)ccc1N(Cc1cc(C2CC2)cc(C(C)(C)C)c1)C(=O)CN(Cc1ccc(Cl)cc1F)S(=O)(=O)c1c(F)c(F)c(F)c(F)c1F [Compound 1175, 4-(N-(3-(tert-butyl)-5-cyclopropylbenzyl)-2-(N-(4-chloro-2-fluorobenzyl)-(2,3,4,5,6-pentafluorophenyl)sulfon-amido)acetamido)-3-methoxybenzoic acid] | 316 to 1000 nM
Cc1cc(C(=O)O)cc(C)c1N(Cc1cc(C2CC2)cc(C(C)(C)C)c1)C(=O)CN(Cc1cnccc1C(F)(F)F)S(=O)(=O)c1c(F)c(F)c(F)c(F)c1F [Compound 1181, 4-(N-(3-(tert-butyl)-5-cyclopropylbenzyl)-2-(N-((4-(trifluoromethyl)pyridin-3-yl)methyl)-(2,3,4,5,6-pentafluoro-phenyl)sulfonamido)acetamido)-3,5-dimethylbenzoic acid] | 316 to 1000 nM
Cc1cc(C(=O)O)cc(C)c1N(Cc1cc(C2CC2)cc(C(C)(C)C)c1)C(=O)CN(Cc1ccc(F)cc1Cl)S(=O)(=O)c1c(F)c(F)c(F)c(F)c1F [Compound 1187, 4-(N-(3-(tert-butyl)-5-cyclopropylbenzyl)-2-(N-(2-chloro-4-fluorobenzyl)-(2,3,4,5,6-pentafluorophenyl)sulfon-amido)acetamido)-3,5-dimethylbenzoic acid] | 316 to 1000 nM
Cc1cc(C(=O)O)cc(C)c1N(Cc1cc(C2CC2)cc(C2CC2)c1)C(=O)CN(Cc1cnccc1C(F)(F)F)S(=O)(=O)c1c(F)c(F)c(F)c(F)c1F [Compound 1202, 4-(N-(3,5-dicyclopropylbenzyl)-2-(N-((4-(trifluoromethyl)pyridin-3-yl)methyl)-(2,3,4,5,6-pentafluoro-phenyl)sulfonamido)acetamido)-3,5-dimethylbenzoic acid] | 316 to 1000 nM
Cc1cc(C(=O)O)cc(C)c1N(Cc1cc(C2CC2)cc(N2CCCC2)c1)C(=O)CN(Cc1c(F)cc(F)cc1F)S(=O)(=O)c1c(F)c(F)c(F)c(F)c1F [Compound 1205, 4-(N-(3-cyclopropyl-5-(pyrrolidin-1-yl)benzyl)-2-(N-(2,4,6-trifluorobenzyl)-(2,3,4,5,6-pentafluoro-phenyl)sulfonamido)acetamido)-3,5-dimethylbenzoic acid] | 316 to 1000 nM
Cc1cc(C(=O)O)cc(C)c1N(Cc1cc(C2CC2)cc(N2CCCC2)c1)C(=O)CN(Cc1ccc(F)cc1Cl)S(=O)(=O)c1c(F)c(F)c(F)c(F)c1F [Compound 1206, 4-(2-(N-(2-chloro-4-fluorobenzyl)-(2,3,4,5,6-pentafluorophenyl)sulfon-amido)-N-(3-cyclopropyl-5-(pyrrolidin-1-yl)benzyl)acetamido)-3,5-dimethylbenzoic acid] | 316 to 1000 nM
CC(C)(C)c1cc(CN(C(=O)CN(Cc2ccc(F)cc2Cl)S(=O)(=O)c2c(F)c(F)c(F)c(F)c2F)c2ccc(C(=O)O)c(C(F)(F)F)c2)cc(C2CC2)c1 [Compound 1229, 4-(N-(3-(tert-butyl)-5-cyclopropylbenzyl)-2-(N-(2-chloro-4-fluorobenzyl)-(2,3,4,5,6-pentafluorophenyl)sulfon-amido)acetamido)-2-(trifluoromethyl) benzoic acid] | 1000 to 3160 nM

Same assay, conditions: Homo sapiens; MV4-11 cells, 72 h, CellTiter-Blue; read-out: IC50- MV-4-11

SMILES | IC50
CC(C)(C)c1cc(N(C(=O)CN(Cc2ccc(Cl)cc2)S(=O)(=O)c2c(F)c(F)c(F)c(F)c2F)c2ccc(C(=O)O)cc2)cc(C(C)(C)C)c1 [Compound 2002, 4-(2-(N-(4-chlorobenzyl)-(2,3,4,5,6-pentafluorophenyl)sulfon-amido)-N-(3,5-di-tert-butylphenyl)acetamido)ben-zoic acid] | 316 to 1000 nM
CC(C)(C)c1cc(CN(C(=O)CN(Cc2ccccc2)S(=O)(=O)c2c(F)c(F)c(F)c(F)c2F)c2ccc(C(=O)O)c(O)c2)cc(C(C)(C)C)c1 [Compound 2003, 4-(2-(N-benzyl-(2,3,4,5,6-pentafluorophenyl)sulfon-amido)-N-(3,5-di-tert-butylbenzyl)acetamido)-2-hydroxybenzoic acid] | 1000 to 3160 nM
CC(C)(C)c1cc(C(=O)N(CCN(Cc2ccc(Cl)cc2)S(=O)(=O)c2c(F)c(F)c(F)c(F)c2F)c2ccc(C(=O)O)cc2)cc(C(C)(C)C)c1 [Compound 2005, 4-(3,5-di-tert-butyl-N-(2-(N-(4-chlorobenzyl)-(2,3,4,5,6-pentafluorophenyl)sulfon-amido)ethyl)benzamido)ben-zoic acid] | 316 to 1000 nM
O=C(O)c1ccc(N(Cc2ccc3c(c2)OCCO3)C(=O)CN(Cc2ccc(Cl)cc2)S(=O)(=O)c2c(F)c(F)c(F)c(F)c2F)cc1O [Compound 2006, 4-(2-(N-(4-chlorobenzyl)-(2,3,4,5,6-pentafluorophenyl)sulfon-amido)-N-((2,3-dihydrobenzo[b][1,4]dioxin-6-yl)methyl)acetamido)-2-hydroxybenzoic acid] | 3160 to 100000 nM
CC(C)COc1cc(CN(C(=O)CN(Cc2ccc(Cl)cc2)S(=O)(=O)c2c(F)c(F)c(F)c(F)c2F)c2ccc(C(=O)O)c(O)c2)cc(OCC(C)C)c1 [Compound 2007, 4-(2-(N-(4-chlorobenzyl)-(2,3,4,5,6-pentafluorophenyl)sulfon-amido)-N-(3,5-diisobutoxybenzyl)acetami-do)-2-hydroxybenzoic acid] | 3160 to 100000 nM
CC(C)(C)c1cc(CN(C(=O)CN(C23CC(C2)C3)S(=O)(=O)c2c(F)c(F)c(F)c(F)c2F)c2ccc(C(=O)O)c(O)c2)cc(C2CC2)c1 [Compound 2008, 4-(2-(N-(bicyclo[1.1.1]pentan-1-yl)-(2,3,4,5,6-pentafluorophenyl)sulfon-amido)-N-(3-(tert-butyl)-5-cyclopropylbenzyl)acetami-do)-2-hydroxybenzoic acid] | 3160 to 100000 nM
O=C(O)c1ccc(N(Cc2cc(OCC(F)(F)F)cc(OCC(F)(F)F)c2)C(=O)CN(Cc2ccc(Cl)cc2)S(=O)(=O)c2c(F)c(F)c(F)c(F)c2F)cc1O [Compound 2009, 4-(N-(3,5-bis(2,2,2-trifluoroethoxy)benzyl)-2-(N-(4-chlorobenzyl)-(2,3,4,5,6-pentafluorophenyl)sulfon-amido)acetamido)-2-hydroxybenzoic acid] | 3160 to 100000 nM
O=C(O)c1ccc(N(Cc2cc(O)cc(O)c2)C(=O)CN(Cc2ccc(Cl)cc2)S(=O)(=O)c2c(F)c(F)c(F)c(F)c2F)cc1O [Compound 2010, 4-(2-(N-(4-chlorobenzyl)-(2,3,4,5,6-pentafluorophenyl)sulfon-amido)-N-(3,5-dihydroxybenzyl)acetamido)-2-hydroxybenzoic acid] | 3160 to 100000 nM
CC(C)(C)c1cccc(CN(C(=O)CN(C23CC(C2)C3)S(=O)(=O)c2c(F)c(F)c(F)c(F)c2F)c2ccc(C(=O)O)c(O)c2)c1 [Compound 2011, 4-(2-(N-(bicyclo[1.1.1]pentan-1-yl)-(2,3,4,5,6-pentafluorophenyl)sulfon-amido)-N-(3-(tert-butyl)benzyl)acetamido)-2-hydroxybenzoic acid] | 1000 to 3160 nM
O=C(O)c1ccc(N(Cc2cc(Cl)cc(Cl)c2)C(=O)CN(Cc2ccc(Cl)cc2)S(=O)(=O)c2c(F)c(F)c(F)c(F)c2F)cc1O [Compound 2012, 4-(2-(N-(4-chlorobenzyl)-(2,3,4,5,6-pentafluorophenyl)sulfon-amido)-N-(3,5-dichlorobenzyl)acetamido)-2-hydroxybenzoic acid] | 3160 to 100000 nM
CC(C)(C)c1cc(N(C(=O)CN(Cc2ccc(Cl)cc2)S(=O)(=O)c2c(F)c(F)c(F)c(F)c2F)c2ccc(C(=O)O)c(O)c2)cc(C(C)(C)C)c1 [Compound 2014, 4-(2-(N-(4-chlorobenzyl)-(2,3,4,5,6-pentafluorophenyl)sulfon-amido)-N-(3,5-di-tert-butylphenyl)acetamido)-2-hydroxybenzoic acid] | 1000 to 3160 nM
COc1cc(C(=O)O)ccc1N(C)C(=O)CN(Cc1ccccc1C(F)(F)F)S(=O)(=O)c1c(F)c(F)c(F)c(F)c1F [Compound 2018, 3-methoxy-4-(N-methyl-2-(N-(2-(trifluoromethyl)benzyl)-(2,3,4,5,6-pentafluoro-phenyl)sulfonamido)acetami-do)benzoic acid] | 1000 to 3160 nM
CC1(C)OC(=O)c2ccc(N(Cc3cc(C4CC4)cc(C(C)(C)C)c3)C(=O)CN(Cc3ccc(Cl)cc3)S(=O)(=O)c3c(F)c(F)c(F)c(F)c3F)cc2O1 [Compound 2022, N-(3-(tert-butyl)-5-cyclopropylbenzyl)-2-(N-(4-chlorobenzyl)-(2,3,4,5,6-pentafluorophenyl)sulfon-amido)-N-(2,2-dimethyl-4-oxo-4H-benzo[d][1,3]dioxin-7-yl)acetamide] | 3160 to 100000 nM

Same assay, conditions: MV4-11 cells, 72 h, CellTiter-Blue; read-out: IC50- MV-4-11

SMILES | IC50
O=C(O)c1ccc(N(Cc2cc(Cl)cc(Br)c2)C(=O)CN(Cc2ccc(Cl)cc2)S(=O)(=O)c2c(F)c(F)c(F)c(F)c2F)cc1O [Compound 2013, 4-(N-(3-bromo-5-chlorobenzyl)-2-(N-(4-chlorobenzyl)-(2,3,4,5,6-pentafluorophenyl)sulfon-amido)acetamido)-2-hydroxybenzoic acid] | 3160 to 100000 nM

Same assay, conditions: MV-4-11 cells

SMILES | IC50
COc1cc(C(=O)O)ccc1N(Cc1cc(C2CC2)cc(C2CC2)c1)C(=O)CN(Cc1ncc(F)cc1Cl)S(=O)(=O)c1c(F)c(F)c(F)c(F)c1F [Compound 1176, 4-(2-(N-((3-chloro-5-fluoropyridin-2-yl)methyl)-(2,3,4,5,6-pentafluorophenyl)sulfon-amido)-N-(3,5-dicyclopropylbenzyl)acetamido)-3-methoxybenzoic acid] | 0.01 to 316 nM
